How the values were obtained:
Format in all cases: cell-based, human
[1] = system: EC and SH-SY5Y cultures; assay: Immunofluorescence deconvolution microscopy of CytC and MitoTracker (mitochondrial membrane potential); details: for loss of mitochondrial membrane potential (red dye internalization): Example 3, cells treated with Aβ
Procedure: Both EC and SH-SY5Y cells were plated on to glass chamber slides (Thermo Fisher Scientific), pre-coated with either collagen-I or poly-d-lysine (for ECs and SH-SY5Y cells respectively). After seeding, cells were allowed to attach for 1 day before treatment with the different peptides for 1-3 days, as above. Cells were washed with ice-cold PBS, fixed with 4% paraformaldehyde (10 min at room temperature) and blocked for 1 h with 20 mg/ml BSA in PBST (PBS containing 0.3% Triton X-100). Slides were further incubated with mouse anti-CytC monoclonal antibody (BD Biosciences; 1:200 dilution in PBST containing 5 mg/ml BSA; 2 h at room temperature) followed by Alexa Fluor® 488-conjugated anti-(mouse IgG) antibody (Invitrogen; 1:200 in PBST with 5 mg/ml BSA; 1 h at room temperature). Fluorescence signals were visualized in a Nikon Eclipse E 800 deconvolution microscope using NIS Elements software (Nikon Instruments) for image acquisition and processing, and AutoQuant (Media Cybernetics) for 3D deconvolution. The effect of methazolamide in preventing the Aβ-induced release of CytC from the mitochondria into the cytoplasm was evaluated in EC and SH-SY5Y cultures. After peptide incubation in the presence and absence of methazolamide (Sigma), release of CytC was visualized by immunofluorescence microscopy and WB analysis, and corroborated by confocal assessment of CytC in conjunction with the mitochondrial marker MitoTracker®.

[2] = system: mitochondria isolated from SH-SY5Y neuronal cells; assay: Mitochondrial H2O2 production (Amplex Red) after Aβ challenge; details: for Aβ-induced H2O2 production: Example 2, both drugs at the proposed concentrations
Procedure: Production of H2O2 from isolated mitochondria was measured using Amplex Red Hydrogen Peroxide/Peroxidase Assay (Life Technologies). Cells were treated with Aβ peptides, in the presence or absence of MTZ. After 16 hours of treatment, the mitochondrial fraction was separated from nuclear and cytoplasmic fractions as previously described (Fossati et al., 2013). Protein concentration in the mitochondrial fraction was measured by BCA assay (Thermo Scientific, Rockford, Ill.), in order to include the same amount of mitochondria in each sample. Functional mitochondrial fractions were distributed in a 96 well plate with Reaction Buffer and Amplex Red solution following the manufacturer's specifications. The plate was incubated in the dark at room temperature for 30 minutes before colorimetric evaluation of the Amplex Red reaction at 560 nm.
Cells were plated on 6-wells plates and treated with the peptides and/or drugs for the experimental times. Plates were centrifuged for 10 min at 1.000 RPM and washed twice with PBS 1×. After that, 500 μL of homogenization buffer (75 mM sucrose, 225 mM mannitol, 5 mM Tris-HCl pH=7.4, 1 mM PMSF and protease inhibitor cocktail) was added. Cells were scraped in this buffer, collected in glass tubes and grinded exactly 80 times with a pellet pestle, keeping everything always on ice. Cells were then centrifuged at 2.800 RPM for 5 min at 4° C. The supernatant was collected and centrifuged again at 2.800 RPM for 5 min at 4° C. The supernatant was again collected and centrifuged at 10.500 RPM for another 5 min at 4° C. After this, the supernatant was discarded and the pellet was re-suspended in 100 μL of homogenization buffer. The samples were centrifuged again at 10.500 RPM for 10 min at 4° C., the supernatant was discarded and the pellets (mitochondrial fractions) were re-suspended on 50 μL of homogenization buffer. A protein concentration assay on mitochondrial protein was performed, using the Pierce BCA Protein Assay Kit (ThermoFisher, Waltham, Mass., US) and following the instructions provided by the manufacturer. After that, mitochondrial fractions containing equal amounts of mitochondrial proteins were placed on 96-wells microplate absorbance microtiter (ThermoFisher, Waltham, Mass., US) and the AmplexRed assay was ran, following the instructions provided by the manufacturer. Absorbance was measured by using a FlexStation (Molecular Devices, Sunnyvalem Calif., US).

[3] = system: M059K Glioma cells; assay: Cell Death ELISAplus, Aβ-induced apoptosis (fragmented nucleosomes); details: for apoptosis in response to Aβ: Example 2, glial cells, FIG. 17C
Procedure: The extent of apoptosis caused by Aβ in the presence or absence of MTZ was assessed by quantitation of nucleosome formation using Cell Death ELISA^plus (Roche Applied Science, Indianapolis, Ind.). Briefly, after incubation with the peptides, plates were centrifuged in a Beckman J-6B centrifuge (10 min; 1,000 rpm), cells lysed, and DNA-histone complexes (nucleosomes) quantitated by Cell Death ELISA, as previously described (Fossati et al., 2010).

[4] = system: D3 cells; assay: ATP measurement (CellTiter-Glo); details: co-treatment with the peptide; 3 hours
Procedure: (§1) Steady state levels of ATP were estimated using the Cell Titter-Glo, according to manufacturer's instructions. Briefly, 5×10^3 cells per well of both D3 and SHSY cells were plated on 96-wells plates. The day after, cells were treated with either 10 μM Q22 or 50 μM Ab42 peptides, respectively. Peptides were added alone or in combination with increasing concentrations of MTZ (100 and 300 μM) or AZT (30 and 300 μM). Controls were treated with either DMSO or 5 μM oligomycin. After 3 hours of treatment, the plates containing the cells were equilibrated to room temperature for 30 minutes prior to addition of the luciferin/luciferase/cell lysis mixture. Absolute luminescence from quadruplicate experiments was recorded using a SpectraMax plate reader (Molecular Devices, Sunnyvalem Calif., US).

[5] = system: SH-SY5Y cells; assay: ATP measurement (CellTiter-Glo); details: drug in combination with the peptide; 3 hours
Procedure: as §1

[6] = system: SH-SY5Y and D3 cell cultures; assay: Intracellular pH measurement (pHrodo); details: MTZ 100 and 300 μM, AZT 30 and 100 μM; 3 and 12 hours; with and without peptide
Procedure: Cells were plated on 96-wells microplate fluorescence microtiter (ThermoFisher, Waltham, Mass., US). The day after, cells were treated with the different drugs and/or peptides. After this, intracellular pH measurement was performed by using the pHrodo red AM kit, following the indications provided by the manufacturer.

[7] = Aβ-Iowa(isoD), 1 day, methazolamide starting at 100 μM

SMILES	mitochondrial membrane potential (MitoTracker localization) [1, 7]	subcellular localization of CytC [1, 7]	loss of mitochondrial membrane potential (red dye internalization) [1]	Aβ-induced increase in H2O2 production by isolated mitochondria ([2]; Example 1, Aβ with MTZ)	Aβ-induced H2O2 production [2]	H2O2 production, drug alone ([2]; MTZ alone, untreated cells)	apoptotic phenotype caused by the Aβ peptides ([3]; 100 μM MTZ, Aβ42 10 μM or Aβ40-Q22 50 μM, 3 days)	Aβ-mediated increase in fragmented nucleosomes ([3]; 300 μM MTZ, Aβ42 10 μM or Aβ40-Q22 50 μM, 3 days)	apoptosis in response to Aβ [3]	Q22-induced increase in steady state ATP levels [4]	ATP levels under Aβ challenge [5]	intracellular pH values [6]
CC(=O)/N=c1/sc(S(N)(=O)=O)nn1C [MTZ, methazolamide]	restored the mitochondrial membrane potential	preserved the subcellular localization of CytC	prevented	completely reverted	completely reverted	did not have any effect	completely reverted the apoptotic phenotype	completely prevented	prevented	unaffected	remained unchanged	did not show any significant changes
CC(=O)Nc1nnc(S(N)(=O)=O)s1 [ATZ, acetazolamide]	–	–	prevented	–	completely reverted	–	–	–	prevented	unaffected	remained unchanged	did not show any significant changes
